# Assay results from patent US12565467B2, “Compounds, compositions, and methods for the treatment of inflammatory, degenerative, and neurodegenerative diseases” (Board of Supervisors of Louisiana State University and …, priority 2015, dated 2026).
# Legend:
# SIRT1 = SIRT1 abundance in ARPE-19 cells under oxidative stress; format: cell-based; conditions: ARPE-19 / human RPE cells confronted with OS
# From the text: FIG. 10. (A) Effect of NPD1 and VLC-PUFA C32:6 and C34:6 in mediating upregulation of SIRT1 in ARPE-19 cells. (B) Quantification of SIRT1 upregulation by NPD1, C32:6 and C34:6. SIRT1 (Sirtuin1) belongs to a family of highly conserved proteins linked to caloric restriction beneficial outcomes and aging by regulating energy metabolism, genomic stability and stress resistance. SIRT1 is a potential therapeutic target in several diseases including cancer, diabetes, inflammatory disorders, and neurodegenerative diseases or disorders. Elovanoids induce cell survival involving the upregulation of the Bcl2 class of survival proteins and the downregulation of pro-apoptotic Bad and Bax under oxidative stress (OS) in RPE cells. […] As a consequence, remarkable cell survival takes place. This target of elovanoids might be relevant to counteract consequences of several diseases associated with SIRT1.
# FIG. 10—(A) Effect of NPD1 and VLC-PUFA C32:6 and C34:6 in mediating upregulation of SIRT1 in ARPE-19 cells. (B) Quantification of SIRT1 upregulation by NPD1, C32:6 and C34:6. SIRT1 (Sirtuin1) belongs to a family of highly conserved proteins linked to caloric restriction beneficial outcomes and aging by regulating energy metabolism, genomic stability and stress resistance. […]
# ARPE-19 cells = experiment: Oxidative stress induced apoptosis / cell death in ARPE-19 cells; format: cell-based, human; conditions: for concentration dependent cytoprotection (FIG. 5C): ARPE-19 under OS
# Procedure: (§1) FIG. 5. (A) Effect of PD146176 on VLC-PUFA-inhibited apoptosis induced by OS in ARPE-19 cells. […] It is evident that 32:6 and 34:6 LCAF were able to induce a substantial amount (55 and 48% respectively) of neuroprotection compared to PD 146176 (22%) when the stressed cells were treated with 5 μm of 15-LOX-D1 inhibitor. It can be concluded that since PD146176 is the inhibitor of 15-lipooxygenase enzyme, it might be protecting the stressed RPE cells by accumulating neuroprotective agents inside the cells. (B) Comparison of cytoprotective capacities of NPD1, C32:6 and C34:6 VLC-PUFA on oxidative stress-induced apoptosis in 15-LOX-1 cells. Shown here is the comparison of neuroprotection in a 15-LOX-1-deficient cell line under oxidative stress with 32:6 and 34:6 VLC-PUFA along with NPD1. 32:6 and 34:6 LCAF were able to induce neuroprotection (45% and 40% respectively), as compared to oxidative stress (90%) under this condition. (C) Concentration dependent cytoprotection by C32:6 and C34:6 VLC-PUFA in oxidative-stress induced ARPE-19 cells. A concentration (50-500 nM) kinetic of cytoprotection induced by LCAF 32:6 and 34:6 in RPE cell culture under OS was shown here. […] We decided to use 250 nM concentrations of 32:6 and 34:6 LCAF in subsequent experiments. (D) Selected images of alive and dead cells from this study (control, OS, treatment with C32:6).
# (§2) FIG. 5—(A) Effect of PD146176 on VLC-PUFA inhibited apoptosis induced by OS in ARPE-19 cells. […] It is evident that 32:6 and 34:6 LCAF were able to induce a substantial amount (55 and 48% respectively) of neuroprotection compared to PD 146176 (22%) when the stressed cells were treated with 5 μm of 15-LOX-D1 inhibitor. It can be concluded that since PD146176 is the inhibitor of 15-lipooxygenase enzyme, it might be protecting the stressed RPE cells by accumulating neuroprotective agents inside the cells. (B) Comparison of cytoprotective capacities of NPD1, C32:6 and C34:6 VLC-PUFA on oxidative stress-induced apoptosis in 15-LOX-1 cells. Shown here is the comparison of neuroprotection in a 15-LOX-1-deficient cell line under oxidative stress with 32:6 and 34:6 VLC-PUFA along with NPD1. 32:6 and 34:6 VLC-PUFA were able to induce neuroprotection (45% and 40% respectively), as compared to oxidative stress (90%) under this condition. (C) Concentration dependent cytoprotection by C32:6 and C34:6 VLC-PUFA in oxidative-stress induced ARPE-19 cells. A concentration (50-500 nM) kinetic of cytoprotection induced by VLC-PUFA 32:6 and 34:6 in RPE cell culture under OS was shown here. […] We decided to use 250 nM concentrations of 32:6 and 34:6 VLC-PUFA in subsequent experiments. (D) Selected images of alive and dead cells from this study (control, OS, treatment with C32:6).
# [1] = test system: human retinal pigment epithelial (RPE) cells deficient in 15-LOX-D1; experiment: Oxidative stress (OS) induced apoptosis / cell death in 15-LOX-1-deficient human RPE cells; format: cell-based
# From the text: (§3) FIG. 4. (A) Cytoprotective effects of NPD1 like compounds on OS induced apoptosis. The results shown in this figure compare the cytoprotective capacities of long chain polyunsaturated fatty acids (VLC-PUFA), elovanoids ELV1 and ELV2, and neuroprotectin D1 (NPD1) in human retinal pigment epithelial (RPE) cells deficient in 15-LOX-D1 by measuring the protection of cell deaths induced by oxidative stress (OS) by these compounds. […] (B) Elovanoid precursors protect human retinal pigment epithelial cells deficient in 15-LOX-1, unlike DHA, from oxidative stress conditions.
# as §1
# as §3, with “Evidence of cytoprotection by 32.6 and 34.6 VLC-PUFA in oxidative-stress induced ARPE-19 cells as detailed in (FIG. 4): (A) Cytoprotective” for “FIG. 4. (A) Cytoprotective”, “capacities of very long chain” for “capacities of long chain”
# as §2, with “(D) Selected images of alive and dead cells from this study (control, OS, treatment with C32:6).” left out
# Bax = Bax expression in LOX-D RPE cells under oxidative stress; format: cell-based, human
# Procedure: (§4) FIG. 8. (A) Bcl-xL-upregulation by elovanoids ELV1 and ELV2 in ARPE-19 cells under stress. Bcl-xL is the antiapoptotic Bcl2 family protein. Like proapoptotic proteins Bid and Bim, the effect of elovaniod precursors on the antiapoptotic protein Bcl-xL was tested in this figure in RPE cells under OS. […] (B) Effect of NPD1, ELV1 and ELV2 on Bax expression in LOX-D cells under stress. Proapoptotic Bax was tested in this figure. […] C) VLC-PUFA and elovanoids ELV1 and ELV2 mediated effect on Bax upregulation in ARPE-19 cells under stress. In this experiment, elovanoid precursors along with VLC-PUFA were tested on the downregulation of the Bax protein in RPE cells under stress.
# as §4, with “8—(A)” for “8. (A)”
# Bim = Bim protein in ARPE-19 cells under oxidative stress; format: cell-based, human; conditions: ARPE-19 cells under stress
# From the text: (§5) FIG. 7. (A) VLC-PUFA and ELV1 and ELV2 compounds mediated downregulation of Bim in ARPE-19 cells under stress. Bim, another class of Bcl2 family, has been tested like Bid in this figure to confirm our previous results. VLC-PUFA and elovanoids protected against the upregulation of Bim by OS, similar to Bid, in RPE cells under stress. (B) VLC-PUFA and elovanoids mediated effect on Bim downregulation in ARPE-19 cells under stress.
# as §5, with “7—A)” for “7. (A)”, “[…]” for “downregulation”, “protected” for “protected against”
# Bcl-xL = Bcl-xL protein in ARPE-19 cells under oxidative stress; format: cell-based, human; conditions: ARPE-19 cells under OS
# Procedure: as §4
# as §4, with “8—(A)” for “8. (A)”
# Bid = Bid protein by western blot in ARPE-19 cells under oxidative stress; format: cell-based, human
# From the text: FIG. 6. (A) VLC-PUFA and elovanoids ELV1 and ELV2 mediated effect on Bid upregulation in ARPE-19 cells under stress. […] (B) VLC-PUFA and ELV1 and ELV2 compounds mediated upregulation of Bid in ARPE-19 cells under stress.
# FIG. 6—(A) VLC-PUFA and elovanoids ELV1 and ELV2 mediated effect on Bid upregulation in ARPE-19 cells under stress. […] (B) VLC-PUFA and ELV1 and ELV2 compounds mediated upregulation of Bid in ARPE-19 cells under stress.
# Bcl2 = Bcl2 protein in RPE (LOX-D / ARPE-19) cells under oxidative stress; format: cell-based, human
# From the text: FIG. 9. (A) VLC-PUFA and elovanoids ELV1 and ELV2 mediated effect on Bcl2 upregulation in ARPE-19 cells under stress. In this experiment we tested the effect of elovanoid precursors on Bcl2 upregulation along with VLC-PUFA in stressed RPE. (B) Quantification of Bcl2 upregulation by NPD1, ELV1 and ELV2 in LOX-D cells. Bcl2 is an important antiapoptotic protein of the Bcl2 family protein.
# FIG. 9—(A) VLC-PUFA and elovanoids ELV1 and ELV2 mediated effect on Bcl2 upregulation in ARPE-19 cells under stress. In this experiment we tested the effect of elovaniod precursors on Blc2 upregulation along with VLC-PUFA in stressed RPE. (B) Quantification of Bcl2 upregulation by NPD1, ELV1 and ELV2 in LOX-D cells. Bcl2 is an important antiapoptotic protein of the Bcl2 family protein.
SMILES,effect on SIRT1 abundance (FIG. 10) (SIRT1),concentration dependent cytoprotection (FIG. 5C) (ARPE-19 cells; 250 nM),concentration dependent cytoprotection (FIG. 5C) (ARPE-19 cells; 500 nM),"protection against OS in RPE cells (summary, FIGS. 4-10) (ARPE-19 cells; RPE cells)",concentration dependent cytoprotection (FIG. 5C) (ARPE-19 cells; starting from 50 nM),neuroprotection (FIG. 5A) (ARPE-19 cells; stressed ARPE-19 cells treated with 5 μm of 15-LOX-D1 inhibitor PD146176),"neuroprotection (FIG. 5B) ([1]; 15-LOX-1-deficient cell line under oxidative stress, compared to oxidative stress (90%))",protection against cell death under oxidative stress conditions (FIG. 4B) ([1]; 15-LOX-D1 cells under oxidative stress),effect on Bax upregulation by OS (FIG. 8B) (Bax),effect on Bim upregulation by OS (FIG. 7) (Bim),effect on antiapoptotic Bcl-xL protein (FIG. 8A) (Bcl-xL),activity against OS relative to the related VLC-PUFA (FIG. 4) ([1]; as sodium salts or methyl esters),effect on Bid protein upregulated by OS (FIG. 6) (Bid),effect on Bcl2 protein (FIG. 9) (Bcl2)
CC/C=C\C/C=C\C/C=C\C/C=C\C/C=C\C/C=C\CCCCCCCCCCCCC(=O)O [C32:6],mediate the upregulation of SIRT1,very good intermediate effect,maximum effect,protective against OS,gradual decrease of cell deaths,55%,45%,protect against cell death,–,–,–,–,–,–
"CC/C=C\C[C@H](O)\C=C/C=C/C=C/[C@H](O)C/C=C\C/C=C\CCCCCCCCCCCCC(=O)O [ELV1, (14Z,17Z,20R,21E,23E,25Z,27S,29Z)-20,27-dihydroxydotriaconta-14,17,21,23,25,29-hexaenoic acid]",–,–,–,–,–,–,–,–,potent downregulation,potent downregulation,potent upregulation,more potent activity against OS than the related VLC-PUFA,potent downregulation,potent upregulation
